Results published in ChEMBL document CHEMBL4823252 (J Med Chem, 2021).

Columns and labels:
MOLM-13 [1] = assay: Induction of apoptosis in human MOLM-13 cells assessed as late apoptotic cells at 100 nM incubated for 24 hrs by flow cytometry (reference value: 4.54%); type: functional
MOLM-13 [2] = assay: Induction of cell cycle arrest in human MOLM-13 cells assessed as accumulation at sub-G1 phase at 10 nM incubated for 24 hrs by flow cytometry (reference value: 4.24%); type: functional
MOLM-13 [3] = assay: Induction of cell cycle arrest in human MOLM-13 cells assessed as accumulation at G1 phase at 10 nM incubated for 24 hrs by flow cytometry (reference value: 69.08%); type: functional
MV4-11 [4] = assay: Induction of apoptosis in human MV4-11 cells assessed as early apoptotic cells at 1 nM incubated for 24 hrs by flow cytometry (reference value: 0.31%); type: functional
MV4-11 [5] = assay: Induction of apoptosis in human MV4-11 cells assessed as viable cells at 100 nM incubated for 24 hrs by flow cytometry (reference value: 98.86%); type: functional; details: read-out: Activity
MOLM-13 [6] = assay: Antiproliferative activity against human sunitinib-resistant MOLM-13 cells at 1 nM incubated for 72 hrs by CCK8 assay relative to control; type: functional
MOLM-13 [7] = assay: Induction of cell cycle arrest in human MOLM-13 cells assessed as accumulation at G1 phase at 1 nM incubated for 24 hrs by flow cytometry (reference value: 69.08%); type: functional
MOLM-13 [8] = assay: Antiproliferative activity against human sunitinib-resistant MOLM-13 cells at 111 nM incubated for 72 hrs by CCK8 assay relative to control; type: functional
MV4-11 [9] = assay: Induction of apoptosis in human MV4-11 cells assessed as necrotic cells at 10 nM incubated for 24 hrs by flow cytometry (reference value: 0.25%); type: functional
MOLM-13 [10] = assay: Induction of apoptosis in human MOLM-13 cells assessed as viable cells at 100 nM incubated for 24 hrs by flow cytometry (reference value: 92.83%); type: functional; details: read-out: Activity
MOLM-13 [11] = assay: Antiproliferative activity against human sunitinib-resistant MOLM-13 cells at 4 nM incubated for 72 hrs by CCK8 assay relative to control; type: functional
MV4-11 [12] = assay: Induction of apoptosis in human MV4-11 cells assessed as necrotic cells at 1 nM incubated for 24 hrs by flow cytometry (reference value: 0.25%); type: functional
MOLM-13 [13] = assay: Induction of cell cycle arrest in human MOLM-13 cells assessed as accumulation at S phase at 10 nM incubated for 24 hrs by flow cytometry (reference value: 16.28%); type: functional
MV4-11 [14] = assay: Induction of cell cycle arrest in human MV4-11 cells assessed as accumulation at G1 phase at 10 nM incubated for 24 hrs by flow cytometry (reference value: 64.73%); type: functional
MOLM-13 [15] = assay: Induction of apoptosis in human MOLM-13 cells assessed as late apoptotic cells at 10 nM incubated for 24 hrs by flow cytometry (reference value: 4.54%); type: functional
MOLM-13 [16] = assay: Induction of apoptosis in human MOLM-13 cells assessed as viable cells at 1 nM incubated for 24 hrs by flow cytometry (reference value: 92.83%); type: functional; details: read-out: Activity
MV4-11 [17] = assay: Antiproliferative activity against human MV4-11 cells incubated for 72 hrs by Cell Counting Kit-8 assay; type: functional, cell-based; details: MV4-11, 72 h
MV4-11 [18] = assay: Induction of cell cycle arrest in human MV4-11 cells assessed as accumulation at S phase at 10 nM incubated for 24 hrs by flow cytometry (reference value: 16.31%); type: functional
MOLM-13 [19] = assay: Antiproliferative activity against human sunitinib-resistant MOLM-13 cells at 1000 nM incubated for 72 hrs by CCK8 assay relative to control; type: functional
MV4-11 [20] = assay: Induction of apoptosis in human MV4-11 cells assessed as viable cells at 10 nM incubated for 24 hrs by flow cytometry (reference value: 98.86%); type: functional; details: read-out: Activity
MOLM-13 [21] = assay: Antiproliferative activity against human quizartinib-resistant MOLM-13 cells at 12 nM incubated for 72 hrs by CCK8 assay relative to control; type: functional
MOLM-13 [22] = assay: Induction of apoptosis in human MOLM-13 cells assessed as necrotic cells at 10 nM incubated for 24 hrs by flow cytometry (reference value: 0.45%); type: functional
MV4-11 [23] = assay: Induction of apoptosis in human MV4-11 cells assessed as early apoptotic cells at 10 nM incubated for 24 hrs by flow cytometry (reference value: 0.31%); type: functional
MV4-11 [24] = assay: Induction of cell cycle arrest in human MV4-11 cells assessed as accumulation at G1 phase at 100 nM incubated for 24 hrs by flow cytometry (reference value: 64.73%); type: functional
MOLM-13 [25] = assay: Antiproliferative activity against human quizartinib-resistant MOLM-13 cells at 111 nM incubated for 72 hrs by CCK8 assay relative to control; type: functional
MV4-11 [26] = assay: Induction of cell cycle arrest in human MV4-11 cells assessed as accumulation at G2/M phase at 100 nM incubated for 24 hrs by flow cytometry (reference value: 7.29%); type: functional
MOLM-13 [27] = assay: Antiproliferative activity against human sunitinib-resistant MOLM-13 cells at 333 nM incubated for 72 hrs by CCK8 assay relative to control; type: functional
MOLM-13 [28] = assay: Induction of apoptosis in human MOLM-13 cells assessed as necrotic apoptotic cells at 1 nM incubated for 24 hrs by flow cytometry (reference value: 0.45%); type: functional
MOLM-13 [29] = assay: Induction of cell cycle arrest in human MOLM-13 cells assessed as accumulation at S phase at 1 nM incubated for 24 hrs by flow cytometry (reference value: 16.28%); type: functional
MOLM-13 [30] = assay: Induction of apoptosis in human MOLM-13 cells assessed as early apoptotic cells at 100 nM incubated for 24 hrs by flow cytometry (reference value: 2.18%); type: functional
MV4-11 [31] = assay: Induction of apoptosis in human MV4-11 cells assessed as early apoptotic cells at 100 nM incubated for 24 hrs by flow cytometry (reference value: 0.31%); type: functional
MOLM-13 [32] = assay: Induction of apoptosis in human MOLM-13 cells assessed as early apoptotic cells at 10 nM incubated for 24 hrs by flow cytometry (reference value: 2.18%); type: functional
MV4-11 [33] = assay: Induction of cell cycle arrest in human MV4-11 cells assessed as accumulation at G2/M phase at 1 nM incubated for 24 hrs by flow cytometry (reference value: 7.29%); type: functional
MOLM-13 [34] = assay: Induction of cell cycle arrest in human MOLM-13 cells assessed as accumulation at sub-G1 phase at 1 nM incubated for 24 hrs by flow cytometry (reference value: 4.24%); type: functional
MOLM-13 [35] = assay: Antiproliferative activity against human quizartinib-resistant MOLM-13 cells at 1000 nM incubated for 72 hrs by CCK8 assay relative to control; type: functional
MOLM-13 [36] = assay: Antiproliferative activity against human sunitinib-resistant MOLM-13 cells at 37 nM incubated for 72 hrs by CCK8 assay relative to control; type: functional
MOLM-13 [37] = assay: Induction of apoptosis in human MOLM-13 cells assessed as late apoptotic cells at 1 nM incubated for 24 hrs by flow cytometry (reference value: 4.54%); type: functional
MOLM-13 [38] = assay: Antiproliferative activity against human quizartinib-resistant MOLM-13 cells at 1 nM incubated for 72 hrs by CCK8 assay relative to control; type: functional
MV4-11 [39] = assay: Induction of apoptosis in human MV4-11 cells assessed as necrotic cells at 100 nM incubated for 24 hrs by flow cytometry (reference value: 0.25%); type: functional

Cc1c(NC(=O)CCN2CCCC2)c[nH]c1/C=C1\C(=O)Nc2ccc(F)cc21
Activity (MOLM-13 [1]): 20.79% | Activity (MOLM-13 [2]): 30.16% | Activity (MOLM-13 [3]): 59.1% | Activity (MV4-11 [4]): 0.39% | viability at 0.1 µM (MV4-11 [5]): 71.7% | Activity (MOLM-13 [6]): -4.2% | Activity (MOLM-13 [7]): 68.95% | Activity (MOLM-13 [8]): 4.9% | Activity (MV4-11 [9]): 1.93% | viability at 0.1 µM (MOLM-13 [10]): 43.8% | Activity (MOLM-13 [11]): 3.3% | Activity (MV4-11 [12]): 1.38% | Activity (MOLM-13 [13]): 4.63% | Activity (MV4-11 [14]): 66.28% | Activity (MOLM-13 [15]): 14.5% | viability at 0.001 µM (MOLM-13 [16]): 91.8% | IC50 (MV4-11 [17]): 23.5 nM | Activity (MV4-11 [18]): 2.41% | Activity (MOLM-13 [19]): 67.8% | viability at 0.01 µM (MV4-11 [20]): 88% | Activity (MOLM-13 [21]): 2.6% | Activity (MOLM-13 [22]): 0.52% | Activity (MV4-11 [23]): 3.5% | Activity (MV4-11 [24]): 62.23% | Activity (MOLM-13 [25]): 2.9% | Activity (MV4-11 [26]): 2.51% | Activity (MOLM-13 [27]): 18.6% | Activity (MOLM-13 [28]): 0.22% | Activity (MOLM-13 [29]): 15.09% | Activity (MOLM-13 [30]): 34.68% | Activity (MV4-11 [31]): 17.98% | Activity (MOLM-13 [32]): 22.66% | Activity (MV4-11 [33]): 3.98% | Activity (MOLM-13 [34]): 6.76% | Activity (MOLM-13 [35]): 60.3% | Activity (MOLM-13 [36]): 4.7% | Activity (MOLM-13 [37]): 4.3% | Activity (MOLM-13 [38]): 1.5% | Activity (MV4-11 [39]): 1.57%

CCN(CC)CCNC(=O)c1c(C)[nH]c(/C=C2\C(=O)Nc3ccc(F)cc32)c1C [SUNITINIB]
Activity (MOLM-13 [1]): 23.49% | Activity (MOLM-13 [2]): 24.17% | Activity (MOLM-13 [3]): 63.75% | Activity (MV4-11 [4]): 0.29% | viability at 0.1 µM (MV4-11 [5]): 80.1% | Activity (MOLM-13 [6]): 5.3% | Activity (MOLM-13 [7]): 65.44% | Activity (MOLM-13 [8]): 1.3% | Activity (MV4-11 [9]): 1.22% | viability at 0.1 µM (MOLM-13 [10]): 44.3% | Activity (MOLM-13 [11]): 0.9% | Activity (MV4-11 [12]): 0.32% | Activity (MOLM-13 [13]): 5.58% | Activity (MV4-11 [14]): 68.1% | Activity (MOLM-13 [15]): 9.47% | viability at 0.001 µM (MOLM-13 [16]): 92.5% | IC50 (MV4-11 [17]): 31.5 nM | Activity (MV4-11 [18]): 2.69% | Activity (MOLM-13 [19]): 25.9% | viability at 0.01 µM (MV4-11 [20]): 89.4% | Activity (MOLM-13 [21]): -1.1% | Activity (MOLM-13 [22]): 0.4% | Activity (MV4-11 [23]): 2.79% | Activity (MV4-11 [24]): 60.29% | Activity (MOLM-13 [25]): 0.5% | Activity (MV4-11 [26]): 2.68% | Activity (MOLM-13 [27]): 6.3% | Activity (MOLM-13 [28]): 0.24% | Activity (MOLM-13 [29]): 16.42% | Activity (MOLM-13 [30]): 31.1% | Activity (MV4-11 [31]): 9.64% | Activity (MOLM-13 [32]): 19.36% | Activity (MV4-11 [33]): 5.86% | Activity (MOLM-13 [34]): 6.13% | Activity (MOLM-13 [35]): 26.6% | Activity (MOLM-13 [36]): 2.6% | Activity (MOLM-13 [37]): 3.32% | Activity (MOLM-13 [38]): 0.5% | Activity (MV4-11 [39]): 1.71%
